Data from ChEMBL document CHEMBL3045511, “Effects of Two Isoflavonoids, Osajin and Pomiferin, from Maclura pomifera for Growth and Feeding Disruption in Ostrinia nubilalis” (2001).

Columns and labels:
Format in all cases: functional
Ostrinia nubilalis [1] = test: Antifeedant activity against Ostrinia nubilalis (European corn borer) larvae assessed as amount of weight gain by the insect at 0.20% of diet dry weight after 5 days relative to control
Ostrinia nubilalis [2] = test: Antifeedant activity against Ostrinia nubilalis (European corn borer) larvae assessed as amount of weight gain by the insect at 0.40% of diet dry weight after 5 days relative to control
Ostrinia nubilalis [3] = test: Antifeedant activity against Ostrinia nubilalis (European corn borer) larvae assessed as amount of weight gain by the insect at 0.60% of diet dry weight after 5 days relative to control
Ostrinia nubilalis [4] = test: Antifeedant activity against Ostrinia nubilalis (European corn borer) larvae assessed as amount of weight gain by the insect at 0.80% of diet dry weight after 5 days relative to control
Ostrinia nubilalis [5] = test: Antifeedant activity against Ostrinia nubilalis (European corn borer) larvae assessed as amount of food consumed at 0.10% of diet dry weight after 5 days relative to control
Ostrinia nubilalis [6] = test: Antifeedant activity against Ostrinia nubilalis (European corn borer) larvae assessed as amount of food consumed at 0.20% of diet dry weight after 5 days relative to control
Ostrinia nubilalis [7] = test: Antifeedant activity against Ostrinia nubilalis (European corn borer) larvae assessed as amount of food consumed at 0.40% of diet dry weight after 5 days relative to control
Ostrinia nubilalis [8] = test: Antifeedant activity against Ostrinia nubilalis (European corn borer) larvae assessed as amount of food consumed at 0.60% of diet dry weight after 5 days relative to control
Ostrinia nubilalis [9] = test: Antifeedant activity against Ostrinia nubilalis (European corn borer) larvae assessed as amount of food consumed at 0.80% of diet dry weight after 5 days relative to control
Ostrinia nubilalis [10] = test: Antifeedant activity against Ostrinia nubilalis (European corn borer) larvae assessed as feeding rate at 0.80% of diet dry weight after 5 days relative to control
Ostrinia nubilalis [11] = test: Antifeedant activity against Ostrinia nubilalis (European corn borer) larvae assessed as amount excreted at 0.10% of diet dry weight after 5 days relative to control
Ostrinia nubilalis [12] = test: Antifeedant activity against Ostrinia nubilalis (European corn borer) larvae assessed as amount excreted at 0.20% of diet dry weight after 5 days relative to control
Ostrinia nubilalis [13] = test: Antifeedant activity against Ostrinia nubilalis (European corn borer) larvae assessed as amount excreted at 0.40% of diet dry weight after 5 days relative to control
Ostrinia nubilalis [14] = test: Antifeedant activity against Ostrinia nubilalis (European corn borer) larvae assessed as amount excreted at 0.60% of diet dry weight after 5 days relative to control
Ostrinia nubilalis [15] = test: Antifeedant activity against Ostrinia nubilalis (European corn borer) larvae assessed as amount excreted at 0.80% of diet dry weight after 5 days relative to control
Ostrinia nubilalis [16] = test: Antifeedant activity against Ostrinia nubilalis (European corn borer) larvae assessed as amount of weight gain by the insect at 0.10% of diet dry weight after 5 days relative to control
Ostrinia nubilalis [17] = test: Effect on growth of female Ostrinia nubilalis (European corn borer) larvae assessed as pupal weight at 0.10% of diet dry weight after 6 days relative to control
Ostrinia nubilalis [18] = test: Effect on growth of male Ostrinia nubilalis (European corn borer) larvae assessed as pupal weight at 0.10% of diet dry weight after 6 days relative to control
Ostrinia nubilalis [19] = test: Effect on growth of female Ostrinia nubilalis (European corn borer) larvae assessed as pupal weight at 1% of diet dry weight after 6 days relative to control
Ostrinia nubilalis [20] = test: Effect on growth of male Ostrinia nubilalis (European corn borer) larvae assessed as pupal weight at 1% of diet dry weight after 6 days relative to control
Ostrinia nubilalis [21] = test: Effect on growth of female Ostrinia nubilalis (European corn borer) larvae assessed as larval duration at 0.001% of diet dry weight after 6 days relative to control
Ostrinia nubilalis [22] = test: Effect on growth of male Ostrinia nubilalis (European corn borer) larvae assessed as larval duration at 0.001% of diet dry weight after 6 days relative to control
Ostrinia nubilalis [23] = test: Effect on growth of female Ostrinia nubilalis (European corn borer) larvae assessed as larval duration at 0.01% of diet dry weight after 6 days relative to control
Ostrinia nubilalis [24] = test: Effect on growth of male Ostrinia nubilalis (European corn borer) larvae assessed as larval duration at 0.01% of diet dry weight after 6 days relative to control
Ostrinia nubilalis [25] = test: Effect on growth of female Ostrinia nubilalis (European corn borer) larvae assessed as larval duration at 0.10% of diet dry weight after 6 days relative to control
Ostrinia nubilalis [26] = test: Effect on growth of male Ostrinia nubilalis (European corn borer) larvae assessed as larval duration at 0.10% of diet dry weight after 6 days relative to control
Ostrinia nubilalis [27] = test: Effect on growth of female Ostrinia nubilalis (European corn borer) larvae assessed as larval duration at 1% of diet dry weight after 6 days relative to control
Ostrinia nubilalis [28] = test: Effect on growth of male Ostrinia nubilalis (European corn borer) larvae assessed as larval duration at 1% of diet dry weight after 6 days relative to control
Ostrinia nubilalis [29] = test: Antifeedant activity against Ostrinia nubilalis (European corn borer) larvae assessed as excretion rate at 0.10% of diet dry weight after 5 days relative to control
Ostrinia nubilalis [30] = test: Antifeedant activity against Ostrinia nubilalis (European corn borer) larvae assessed as excretion rate at 0.20% of diet dry weight after 5 days relative to control
Ostrinia nubilalis [31] = test: Antifeedant activity against Ostrinia nubilalis (European corn borer) larvae assessed as excretion rate at 0.40% of diet dry weight after 5 days relative to control
Ostrinia nubilalis [32] = test: Antifeedant activity against Ostrinia nubilalis (European corn borer) larvae assessed as excretion rate at 0.60% of diet dry weight after 5 days relative to control
Ostrinia nubilalis [33] = test: Antifeedant activity against Ostrinia nubilalis (European corn borer) larvae assessed as excretion rate at 0.80% of diet dry weight after 5 days relative to control
Ostrinia nubilalis [34] = test: Antifeedant activity against Ostrinia nubilalis (European corn borer) larvae assessed as growth rate at 0.10% of diet dry weight after 5 days relative to control
Ostrinia nubilalis [35] = test: Antifeedant activity against Ostrinia nubilalis (European corn borer) larvae assessed as growth rate at 0.20% of diet dry weight after 5 days relative to control
Ostrinia nubilalis [36] = test: Antifeedant activity against Ostrinia nubilalis (European corn borer) larvae assessed as growth rate at 0.40% of diet dry weight after 5 days relative to control
Ostrinia nubilalis [37] = test: Antifeedant activity against Ostrinia nubilalis (European corn borer) larvae assessed as growth rate at 0.60% of diet dry weight after 5 days relative to control
Ostrinia nubilalis [38] = test: Antifeedant activity against Ostrinia nubilalis (European corn borer) larvae assessed as growth rate at 0.80% of diet dry weight after 5 days relative to control
Ostrinia nubilalis [39] = test: Antifeedant activity against Ostrinia nubilalis (European corn borer) larvae assessed as feeding rate at 0.10% of diet dry weight after 5 days relative to control
Ostrinia nubilalis [40] = test: Antifeedant activity against Ostrinia nubilalis (European corn borer) larvae assessed as feeding rate at 0.20% of diet dry weight after 5 days relative to control
Ostrinia nubilalis [41] = test: Antifeedant activity against Ostrinia nubilalis (European corn borer) larvae assessed as feeding rate at 0.40% of diet dry weight after 5 days relative to control
Ostrinia nubilalis [42] = test: Antifeedant activity against Ostrinia nubilalis (European corn borer) larvae assessed as feeding rate at 0.60% of diet dry weight after 5 days relative to control
Ostrinia nubilalis [43] = test: Insecticidal activity against Ostrinia nubilalis (European corn borer) larvae assessed as mortality at 0.10 to 0.80% of diet dry weight after 5 days relative to control
Ostrinia nubilalis [44] = test: Effect on growth of female Ostrinia nubilalis (European corn borer) larvae assessed as adult emergence at 0.001% of diet dry weight after 6 days relative to control
Ostrinia nubilalis [45] = test: Effect on growth of male Ostrinia nubilalis (European corn borer) larvae assessed as adult emergence at 0.001% of diet dry weight after 6 days relative to control
Ostrinia nubilalis [46] = test: Effect on growth of female Ostrinia nubilalis (European corn borer) larvae assessed as adult emergence at 0.01% of diet dry weight after 6 days relative to control
Ostrinia nubilalis [47] = test: Effect on growth of male Ostrinia nubilalis (European corn borer) larvae assessed as adult emergence at 0.01% of diet dry weight after 6 days relative to control
Ostrinia nubilalis [48] = test: Effect on growth of female Ostrinia nubilalis (European corn borer) larvae assessed as adult emergence at 0.10% of diet dry weight after 6 days relative to control
Ostrinia nubilalis [49] = test: Effect on growth of male Ostrinia nubilalis (European corn borer) larvae assessed as adult emergence at 0.10% of diet dry weight after 6 days relative to control
Ostrinia nubilalis [50] = test: Effect on growth of female Ostrinia nubilalis (European corn borer) larvae assessed as adult emergence at 1% of diet dry weight after 6 days relative to control
Ostrinia nubilalis [51] = test: Effect on growth of male Ostrinia nubilalis (European corn borer) larvae assessed as adult emergence at 1% of diet dry weight after 6 days relative to control
Ostrinia nubilalis [52] = test: Effect on growth of female Ostrinia nubilalis (European corn borer) larvae assessed as pupal duration at 0.001% of diet dry weight after 6 days relative to control
Ostrinia nubilalis [53] = test: Effect on growth of male Ostrinia nubilalis (European corn borer) larvae assessed as pupal duration at 0.001% of diet dry weight after 6 days relative to control
Ostrinia nubilalis [54] = test: Effect on growth of female Ostrinia nubilalis (European corn borer) larvae assessed as pupal duration at 0.01% of diet dry weight after 6 days relative to control
Ostrinia nubilalis [55] = test: Effect on growth of male Ostrinia nubilalis (European corn borer) larvae assessed as pupal duration at 0.01% of diet dry weight after 6 days relative to control
Ostrinia nubilalis [56] = test: Effect on growth of female Ostrinia nubilalis (European corn borer) larvae assessed as pupal duration at 0.10% of diet dry weight after 6 days relative to control
Ostrinia nubilalis [57] = test: Effect on growth of male Ostrinia nubilalis (European corn borer) larvae assessed as pupal duration at 0.10% of diet dry weight after 6 days relative to control
Ostrinia nubilalis [58] = test: Effect on growth of female Ostrinia nubilalis (European corn borer) larvae assessed as pupal duration at 1% of diet dry weight after 6 days relative to control
Ostrinia nubilalis [59] = test: Effect on growth of male Ostrinia nubilalis (European corn borer) larvae assessed as pupal duration at 1% of diet dry weight after 6 days relative to control
Ostrinia nubilalis [60] = test: Effect on growth of female Ostrinia nubilalis (European corn borer) larvae assessed as pupal weight at 0.001% of diet dry weight after 6 days relative to control
Ostrinia nubilalis [61] = test: Effect on growth of male Ostrinia nubilalis (European corn borer) larvae assessed as pupal weight at 0.001% of diet dry weight after 6 days relative to control
Ostrinia nubilalis [62] = test: Effect on growth of female Ostrinia nubilalis (European corn borer) larvae assessed as pupal weight at 0.01% of diet dry weight after 6 days relative to control
Ostrinia nubilalis [63] = test: Effect on growth of male Ostrinia nubilalis (European corn borer) larvae assessed as pupal weight at 0.01% of diet dry weight after 6 days relative to control

**Q.** Which results are given for `CC(C)=CCc1c2c(c3occ(-c4ccc(O)cc4)c(=O)c3c1O)C=CC(C)(C)O2` [OSAJIN]?
**A.** Activity (Ostrinia nubilalis [1]): -3%; Activity (Ostrinia nubilalis [2]): 17%; Activity (Ostrinia nubilalis [3]): 7%; Activity (Ostrinia nubilalis [4]): 10.5%; Activity (Ostrinia nubilalis [5]): -8%; Activity (Ostrinia nubilalis [6]): -12%; Activity (Ostrinia nubilalis [7]): 30.5%; Activity (Ostrinia nubilalis [8]): 36%; Activity (Ostrinia nubilalis [9]): 27.7%; Activity (Ostrinia nubilalis [10]): 27.5%; Activity (Ostrinia nubilalis [11]): -1.4%; Activity (Ostrinia nubilalis [12]): 2.6%; Activity (Ostrinia nubilalis [13]): 17.6%; Activity (Ostrinia nubilalis [14]): 10.8%; Activity (Ostrinia nubilalis [15]): 1.9%; Activity (Ostrinia nubilalis [16]): -2%; Activity (Ostrinia nubilalis [17]): 102 mg; Activity (Ostrinia nubilalis [18]): 75 mg; Activity (Ostrinia nubilalis [19]): 109 mg; Activity (Ostrinia nubilalis [20]): 71 mg; Time (Ostrinia nubilalis [21]): 11.7 days; Time (Ostrinia nubilalis [22]): 11.4 days; Time (Ostrinia nubilalis [23]): 12.6 days; Time (Ostrinia nubilalis [24]): 11.4 days; Time (Ostrinia nubilalis [25]): 11.8 days; Time (Ostrinia nubilalis [26]): 11.4 days; Time (Ostrinia nubilalis [27]): 12.4 days; Time (Ostrinia nubilalis [28]): 11.3 days; Activity (Ostrinia nubilalis [29]): -1%; Activity (Ostrinia nubilalis [30]): 6%; Activity (Ostrinia nubilalis [31]): 6.3%; Activity (Ostrinia nubilalis [32]): 1.9%; Activity (Ostrinia nubilalis [33]): 4%; Activity (Ostrinia nubilalis [34]): -1%; Activity (Ostrinia nubilalis [35]): -1%; Activity (Ostrinia nubilalis [36]): 4.7%; Activity (Ostrinia nubilalis [37]): 1.7%; Activity (Ostrinia nubilalis [38]): 3%; Activity (Ostrinia nubilalis [39]): -7%; Activity (Ostrinia nubilalis [40]): -8%; Activity (Ostrinia nubilalis [41]): 23%; Activity (Ostrinia nubilalis [42]): 36%; mortality (Ostrinia nubilalis [43]): <=7%; Activity (Ostrinia nubilalis [44]): 54%; Activity (Ostrinia nubilalis [45]): 71%; Activity (Ostrinia nubilalis [46]): 44%; Activity (Ostrinia nubilalis [47]): 50%; Activity (Ostrinia nubilalis [48]): 50%; Activity (Ostrinia nubilalis [49]): 71%; Activity (Ostrinia nubilalis [50]): 85%; Activity (Ostrinia nubilalis [51]): 43%; Time (Ostrinia nubilalis [52]): 6.5 days; Time (Ostrinia nubilalis [53]): 7.2 days; Time (Ostrinia nubilalis [54]): 6.3 days; Time (Ostrinia nubilalis [55]): 6.8 days; Time (Ostrinia nubilalis [56]): 7.1 days; Time (Ostrinia nubilalis [57]): 7.6 days; Time (Ostrinia nubilalis [58]): 6.4 days; Time (Ostrinia nubilalis [59]): 7.3 days; Activity (Ostrinia nubilalis [60]): 103 mg; Activity (Ostrinia nubilalis [61]): 76 mg; Activity (Ostrinia nubilalis [62]): 104 mg; Activity (Ostrinia nubilalis [63]): 75 mg
